Results from patent US20080063628A1, “METHODS TO PROMOTE CELL DIFFERENTIATION” (priority 2006, published 2008).

Experiments:
[1] = test system: Neonatal fibroblasts (Hs27); assay: Trichostatin A 48 h treatment, gene expression by Real-Time PCR (Example 1); assay type: cell-based, human
Description: Neonatal fibroblasts, also designated Hs27, were derived from human foreskins and obtained from the American Type Culture Collection (ATCC). Panc-1 cells are a transformed cell line derived from a pancreatic epitheloid carcinoma of ductal origin, also obtained from ATCC.
Fibroblasts or Panc-1 cells were seeded into a 6-well tissue culture plate at a density of 50,000 cells/cm^2. Both cell types were cultured in medium containing 10% FBS and DMEM under standard cell culture conditions (37° C., 5% CO2). After reaching confluence (2-3 days), trichostatin A diluted in dimethyl sulfoxide (DMSO) and medium was added at either 2.5 μM or 5 μM to the cultures. Parallel cultures were treated with an equivalent concentration of DMSO as a vehicle control.
RNA samples were obtained from the treated cultures 48 hours after the addition of trichostatin A or DMSO. The culture medium was removed, the cells were washed with phosphate buffered saline (PBS), and RLT Lysis buffer containing β-mercaptoethanol (Qiagen) was added. The samples were homogenized using Qiashredder columns (Qiagen), and RNA was purified using the RNeasy Mini Kit (Qiagen). RNA quantity and quality was determined using a spectrophotometer, and cDNA was made using the iScript cDNA synthesis kit (BioRad).
The expression levels of Sox17, HNF-3 beta, Pdx-1, insulin, and glucagon were determined by Real-Time PCR (RT-PCR), as described in Example 15. Samples of 20 ng cDNA were used in each reaction. RT-PCR reactions were performed on the Applied Biosystems 7500, and data was analyzed using the accompanying software. Human pancreas cDNA was included as a positive control. Results were normalized against GAPDH expression levels.
(§1) Real-time PCR amplifcation and quantitative analysis. Unless otherwise stated, all reagents were purchased from Applied Biosystems. Real-time PCR reactions were performed using the ABI PRISM™ 7500 Sequence Detection System. TAQMAN™ FAST UNIVERSAL PCR MASTER MIX™ (ABI, CA) was used with 20 ng of reverse transcribed RNA in a total reaction volume of 20 μl. Each cDNA sample was run in duplicate to allow correction of pipetting errors. Primers and FAM-labeled TAQMAN™ probes were used at concentrations of 200 nM. The level of expression for each target gene was normalized using the pre-developed Applied Biosystem's human glyceraldehyde-3-phosphate dehydrogenase (GAPDH) endogenous control kit. Primers and probes were designed using either ABI PRISM PRIMER EXPRESS™ software or a pre-developed ABI gene analysis kit. For each gene, either one of the primers or the probe were designed to be exon-boundary spanning. This eliminated the possibility of the primers/probe binding to any genomic DNA present. The primer and probe sets are listed as follows: Pdx-1 (Hs00426216), Insulin (Hs00355773), glucagon (Hs00174967), and FoxA2 (HNF 3-beta) (Hs00232764). The remaining primers were designed using the PRIMERS program (ABI, CA). After an initial 95° C. incubation for 20 sec, samples were cycled 40 times in two stages: a denaturation step at 95° C. for 3 sec, followed by an annealing/extension step at 60° C. for 30 sec.
(§2) For each primer/probe set, a cycle time value was determined as the cycle number at which the fluorescence intensity of the PCR reaction reached a specific value in the middle of the exponential region of amplification. An increase in expression of a gene corresponded to a decrease in the number of cycles required for the fluorescence intensity to reach this value.

[2] = test system: late passage (P14) pancreatic-derived stromal cells; assay: Trichostatin A 24 h time course, gene expression by Real-Time PCR (Example 3); assay type: cell-based, human; settings: 2.5 μM
Description: Human pancreatic-derived stromal cells were obtained according to the methods described in Example 13. Cells were seeded into a 24-well tissue culture plate at a density of 5000/cm^2 and cultured in DMEM containing 10% fetal bovine serum under standard cell culture conditions until confluent. After the cells reached confluency, 2.5 μM trichostatin A, diluted in DMSO and medium was added to the wells. Parallel cultures were treated with an equivalent concentration of DMSO as a vehicle control. RNA samples were obtained from treated cultures at 30 minutes, 1.5 hours, 3 hours, 6 hours, 12 hours and 24 hours following the addition of trichostatin A or DMSO. Culture medium was removed, the cells were washed with PBS, and RLT lysis buffer with β-mercaptoethanol (Qiagen) was added. RNA was purified using the RNeasy Mini Kit (Qiagen). RNA quantity and quality were determined using a spectrophotometer, and CDNA was made using the iScript cDNA synthesis kit (BioRad).
The expression levels of Sox17, HNF-3 beta, Pdx-1, insulin, and glucagon were determined by Real-Time PCR. Samples of 20 ng cDNA were used in each reaction, which was performed on the Applied Biosystems 7500 according to the methods described in Example 15. Data were analyzed using the accompanying software. Human pancreas cDNA was included as a positive control, and results were normalized against GAPDH expression levels.
as §1, §2

What does the source list for `CC(/C=C/C(=O)NO)=C\[C@@H](C)C(=O)c1ccc(N(C)C)cc1` [trichostatin A]?
GAPDH gene expression ([1]; 2.5 μM): +++ (detectable at less than 35 cycles by RT-PCR with SE less than 0.9); HNF-3 beta gene expression ([1]; 2.5 μM): +++ (detectable at less than 35 cycles by RT-PCR with SE less than 0.9); Insulin gene expression ([1]; 2.5 μM): nd (not detectable at >40 cycles by RT-PCR); PDX-1 gene expression ([1]; 2.5 μM): + (detectable at greater than 35–40 cycles by RT-PCR); Sox17 gene expression ([1]; 2.5 μM): +++ (detectable at less than 35 cycles by RT-PCR with SE less than 0.9); glucagon gene expression ([1]; 2.5 μM): +++ (detectable at less than 35 cycles by RT-PCR with SE less than 0.9); GAPDH gene expression ([1]; 5.0 μM): +++ (detectable at less than 35 cycles by RT-PCR with SE less than 0.9); HNF-3 beta gene expression ([1]; 5.0 μM): +++ (detectable at less than 35 cycles by RT-PCR with SE less than 0.9); Insulin gene expression ([1]; 5.0 μM): nd (not detectable at >40 cycles by RT-PCR); PDX-1 gene expression ([1]; 5.0 μM): + (detectable at greater than 35–40 cycles by RT-PCR); Sox17 gene expression ([1]; 5.0 μM): +++ (detectable at less than 35 cycles by RT-PCR with SE less than 0.9); glucagon gene expression ([1]; 5.0 μM): +++ (detectable at less than 35 cycles by RT-PCR with SE less than 0.9); HNF-3 beta gene expression ([2]; 0.5 h): nd (not detectable at >40 cycles by RT-PCR); Insulin gene expression ([2]; 0.5 h): nd (not detectable at >40 cycles by RT-PCR); PDX-1 gene expression ([2]; 0.5 h): nd (not detectable at >40 cycles by RT-PCR); Sox17 gene expression ([2]; 0.5 h): + (detectable between 35 and 40 cycles by RT-PCR); glucagon gene expression ([2]; 0.5 h): nd (not detectable at >40 cycles by RT-PCR); HNF-3 beta gene expression ([2]; 1.5 h): nd (not detectable at >40 cycles by RT-PCR); Insulin gene expression ([2]; 1.5 h): nd (not detectable at >40 cycles by RT-PCR); PDX-1 gene expression ([2]; 1.5 h): nd (not detectable at >40 cycles by RT-PCR); Sox17 gene expression ([2]; 1.5 h): nd (not detectable at >40 cycles by RT-PCR); glucagon gene expression ([2]; 1.5 h): nd (not detectable at >40 cycles by RT-PCR); HNF-3 beta gene expression ([2]; 3 h): nd (not detectable at >40 cycles by RT-PCR); Insulin gene expression ([2]; 3 h): nd (not detectable at >40 cycles by RT-PCR); PDX-1 gene expression ([2]; 3 h): nd (not detectable at >40 cycles by RT-PCR); Sox17 gene expression ([2]; 3 h): + (detectable between 35 and 40 cycles by RT-PCR); glucagon gene expression ([2]; 3 h): nd (not detectable at >40 cycles by RT-PCR); Sox-17 RT-PCR detection cycle ([2]; 3 hours): > 35 cycles; HNF-3 beta gene expression ([2]; 6 h): + (detectable between 35 and 40 cycles by RT-PCR); Insulin gene expression ([2]; 6 h): nd (not detectable at >40 cycles by RT-PCR); PDX-1 gene expression ([2]; 6 h): nd (not detectable at >40 cycles by RT-PCR); Sox17 gene expression ([2]; 6 h): + (detectable between 35 and 40 cycles by RT-PCR); glucagon gene expression ([2]; 6 h): nd (not detectable at >40 cycles by RT-PCR); HNF-3 beta RT-PCR detection cycle ([2]; 6 hours): > 35 cycles; HNF-3 beta gene expression ([2]; 12 h): + (detectable between 35 and 40 cycles by RT-PCR); Insulin gene expression ([2]; 12 h): nd (not detectable at >40 cycles by RT-PCR); PDX-1 gene expression ([2]; 12 h): + (detectable between 35 and 40 cycles by RT-PCR); Sox17 gene expression ([2]; 12 h): + (detectable between 35 and 40 cycles by RT-PCR); glucagon gene expression ([2]; 12 h): nd (not detectable at >40 cycles by RT-PCR); Pdx-1 RT-PCR detection cycle ([2]; 12 hours): > 35 cycles; HNF-3 beta gene expression ([2]; 24 h): +++ (detectable at less than 35 cycles by RT-PCR with std error less than 0.9); Insulin gene expression ([2]; 24 h): nd (not detectable at >40 cycles by RT-PCR); PDX-1 gene expression ([2]; 24 h): +++ (detectable at less than 35 cycles by RT-PCR with std error less than 0.9); Sox17 gene expression ([2]; 24 h): +++ (detectable at less than 35 cycles by RT-PCR with std error less than 0.9); glucagon gene expression ([2]; 24 h): + (detectable between 35 and 40 cycles by RT-PCR); HNF-3 beta RT-PCR detection cycle ([2]; 24 hours): < 35 cycles; HNF-3 beta gene expression relative to human pancreas ([2]; 24 hours): ~0.075 % of human pancreas; Pdx-1 RT-PCR detection cycle ([2]; 24 hours): < 35 cycles; Pdx-1 gene expression relative to human pancreas ([2]; 24 hours): ~0.2 % of human pancreas levels; Sox-17 RT-PCR detection cycle ([2]; 24 hours): < 35 cycles; Sox-17 gene expression relative to human pancreas ([2]; 24 hours): ~3 % of human pancreas levels; glucagon RT-PCR detection cycle ([2]; 24 hours): 35-40 cycles
